Assays:
Details in all cases: treatment: drug alone; 5 days
SN12C [1] = assay: GI50, drug alone; higher = less potent
Description: (§1)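 Primary HTS: 8 RCC cell lines treated with 8 doses (up to 10 uM) of each library drug alone for 5 days; viability read by CellTiter-Glo and normalised to DMSO. GI50 was fitted with XLfit (4-parameter), AUC is the area under the dose-response curve, and minimum viability is the lowest fraction of DMSO viability across doses.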

CAKI-1 [2] = assay: GI50, drug alone; higher = less potent
Description: as §1

ACHN [3] = assay: GI50, drug alone; higher = less potent
Description: as §1

A498 [4] = assay: GI50, drug alone; higher = less potent
Description: as §1

UO-31 [5] = assay: GI50, drug alone; higher = less potent
Description: as §1

769-P [6] = assay: GI50, drug alone; higher = less potent
Description: as §1

TK-10 [7] = assay: GI50, drug alone; higher = less potent
Description: as §1

786-O [8] = assay: GI50, drug alone; higher = less potent
Description: as §1

SN12C [9] = assay: minimum viability across doses, drug alone, relative to DMSO (fraction); higher = less growth inhibition
Description: as §1

CAKI-1 [10] = assay: as above
Description: as §1

ACHN [11] = assay: as above
Description: as §1

A498 [12] = assay: as above
Description: as §1

UO-31 [13] = assay: as above
Description: as §1

769-P [14] = assay: as above
Description: as §1

TK-10 [15] = assay: as above
Description: as §1

786-O [16] = assay: as above
Description: as §1

SN12C [17] = assay: AUC of dose-response viability curve, drug alone (arbitrary (AUC of normalised viability)); higher = less growth inhibition
Description: as §1

CAKI-1 [18] = assay: as above
Description: as §1

ACHN [19] = assay: as above
Description: as §1

A498 [20] = assay: as above
Description: as §1

UO-31 [21] = assay: as above
Description: as §1

769-P [22] = assay: as above
Description: as §1

TK-10 [23] = assay: as above
Description: as §1

786-O [24] = assay: as above
Description: as §1

Row | SMILES | GI50, drug alone (SN12C [1]) | GI50, drug alone (CAKI-1 [2]) | GI50, drug alone (ACHN [3]) | GI50, drug alone (A498 [4]) | GI50, drug alone (UO-31 [5]) | GI50, drug alone (769-P [6]) | GI50, drug alone (TK-10 [7]) | GI50, drug alone (786-O [8]) | minimum viability across doses (SN12C [9]) | minimum viability across doses (CAKI-1 [10]) | minimum viability across doses (ACHN [11]) | minimum viability across doses (A498 [12]) | minimum viability across doses (UO-31 [13]) | minimum viability across doses (769-P [14]) | minimum viability across doses (TK-10 [15]) | minimum viability across doses (786-O [16]) | AUC of dose-response viability curve (SN12C [17]) | AUC of dose-response viability curve (CAKI-1 [18]) | AUC of dose-response viability curve (ACHN [19]) | AUC of dose-response viability curve (A498 [20]) | AUC of dose-response viability curve (UO-31 [21]) | AUC of dose-response viability curve (769-P [22]) | AUC of dose-response viability curve (TK-10 [23]) | AUC of dose-response viability curve (786-O [24])
1 | COCCOc1ccc2c(c1)ncn2-c1ccc2cccc(N3CCC(N)CC3)c2n1 | 2800 nM | 2110 nM | 2480 nM | 3300 nM | 2910 nM | 6040 nM | 2120 nM | 631 nM | 0.0384 | 0.292 | 0.0176 | 0.0414 | 0.00652 | 0.333 | 0.198 | 0.00547 | 2.92 | 2.66 | 2.7 | 3.27 | 3.38 | 3.12 | 2.43 | 1.81
2 | CC1(COc2ccc3c(c2)ncn3-c2ccc3cccc(N4CCC(N)CC4)c3n2)COC1 | 2190 nM | 3200 nM | 2730 nM | 3470 nM | 1370 nM | 5050 nM | 4880 nM | 538 nM | 0.0442 | 0.319 | 0.0169 | 0.0171 | 0.0124 | 0.283 | 0.16 | 0.00547 | 2.58 | 2.69 | 2.98 | 3.5 | 2.67 | 2.25 | 2.88 | 1.83
3 | Cn1cc(C2=C(c3cn(C4CCN(Cc5ccccn5)CC4)c4ccccc34)C(=O)NC2=O)c2ccccc21 | > 10000 nM | > 10000 nM | > 10000 nM | > 10000 nM | > 10000 nM | > 10000 nM | > 10000 nM | > 10000 nM | 0.861 | 0.814 | 0.863 | 1.1 | 0.922 | 0.834 | 0.698 | 0.805 | 3.33 | 3.55 | 3.3 | 4.23 | 4.69 | 3.34 | 3.24 | 3.23
4 | CCc1cnn2c(NCc3ccc[n+]([O-])c3)cc(N3CCCC[C@H]3CCO)nc12 | 14.7 nM | 14.7 nM | 17 nM | 13.6 nM | 11 nM | 29.8 nM | 21.8 nM | 6.29 nM | 0.0122 | 0.0724 | 0.011 | 0.00896 | 0.0105 | 0.0153 | 0.128 | 0.00554 | 0.716 | 0.874 | 0.783 | 0.65 | 0.612 | 1.04 | 1.15 | 0.398
5 | Cc1nc(Nc2ncc(C(=O)Nc3c(C)cccc3Cl)s2)cc(N2CCN(CCO)CC2)n1 | 2300 nM | 78.8 nM | 78.5 nM | > 10000 nM | 135 nM | 149 nM | 25.7 nM | 179 nM | 0.377 | 0.0431 | 0.0527 | 0.631 | 0.0768 | 0.0457 | 0.0612 | 0.0837 | 2.35 | 1.45 | 1.52 | 3.35 | 1.93 | 1.7 | 1.11 | 1.9

From the supplement of paper PMC8149375
